Experimental data: patent US8329416B2, “Stabilized standards for busulfan immunoassay” (Saladax Biomedical Inc., priority 2008, dated 2012)
Read-outs that look alike come from different tables or passages of the source. Each block holds one molecule with its values, some of them ahead of it.

Legend:
[1] = stability tests of amide of formula II standards in solution; type: physicochemical; details: for time stable: solutions 590 ng/ml to 4720 ng/ml
antibody to busulfan = assay: direct competitive ELISA for busulfan (busulfan-HRP conjugate, antibody-coated plate); type: binding
Method: For the purpose of determining amide of formula II equivalents to busulfan of formula I and assaying busulfan with the amide standards by Enzyme-Linked Immunosorbent Assay (ELISA) method, polystyrene microtiter plates optimized for protein binding and containing 96 well per plate were used. Each well was coated with an antibody to busulfan produced as described in U.S. Pat. No. 7,238,024 Example 7, by adding 100 μL of antibody at 7.5 μg/mL in 0.05M sodium bicarbonate, pH=9.6 and then were blocked with 400 μL of 5% sucrose, 0.2% sodium caseinate solution for 30 minutes at room temperature. After removal of the post-coat solution the plates dried at 37° C. overnight.
The cross-reactivity of the amide was determined in a direct competitive Enzyme-Linked Immunosorbent Assay (ELISA) for busulfan. This method for measuring busulfan concentrations was performed with the microtiter plates that were sensitized with busulfan antibody described in Example 3. The amide stock solution at 6 mg/mL DMF was serially diluted 5000 ng/mL and 500 ng/mL in a buffer comprising 0.02 M sodium phosphate, 0.15 M NaCl, 0.1% BSA, 0.01% Thimerosal, pH 7.2. To perform the assay 30 μL of busulfan standards from Example 1, and 30 μL of amide of formula II dilutions were pre-diluted in a 96-well plate by the addition of 180 μL of sample pre-dilution buffer consisting of 0.02 M sodium phosphate, 0.15 M NaCl, 0.5% Dextran Sulfate, 0.01% Thimerosal, pH 7.2. 50 μL of all prediluted samples were added to the antibody coated microtiter plate of Example 3. After addition of the samples 50 μL of a busulfan-HRP conjugate at 100 ng/mL in a buffer comprising to 0.02 M sodium phosphate, 0.15 M NaCl, 0.2% BSA, 0.1% ANS (8-anilino-1-naphthalene sulfonic acid), 15 ppm ProClin® Preservative 300 was added. During the following 10 minute incubation (R.T., with shaking) there is a competition between sample (busulfan or amide) and busulfan-HRP for binding with the antibody in the well. Following this incubation the wells of the plate were washed three times with 0.02 M TRIS, 0.9% NaCl, 0.5% polyethylene glycol sorbitan monooleate TWEEN® 80 and 0.001% Thimerosal, pH 7.8 to remove any material that was not bound. To detect the amount of busulfan-HRP bound to the busulfan antibody in the wells, 100 μL of TMB (TMB Liquid Substrate) a substrate for HRP was added. To develop a measurable color in the wells there was a 10 second incubation (R.T., with shaking). Following the incubation 50 μL of stop solution comprising 1.5% sodium fluoride in di H2O was added to each well to stop the color development and after 10 seconds of shaking the absorbance was determined at 650 nm with a 96-well plate reader. The amount of busulfan-HRP in a well was proportional to the absorbance measured and inversely proportional to the amount of busulfan of formulated or amide of formulated in the sample. The absorbance of the color in the wells containing busulfan was compared to that with no busulfan analyte and a standard curve was generated. […] The cross-reactivity was used to determine the concentration of amide necessary to produce a calibration curve equivalent to that of busulfan (Example 6).
Using the busulfan antibody plates (Example 3) in a direct competitive Enzyme-Linked Immunosorbent Assay (ELISA) for busulfan described in Example 4, the GC-MS verified busulfan calibrators (Example 1) were used to generate a curve from 75 ng/mL to 2000 ng/mL and the amide calibrators were read off this standard curve as unknown samples. […] The X axis represents the verified busulfan concentration and the Y axis is the amide standards expressed as busulfan equivalence factor (amide concentration value x 0.107=busulfan equivalence factor e.g. 1410 ng/mL amide x 0.107=150 ng/mL busulfan equivalence).

[2] = tested on: antibodies specific for busulfan; assay: busulfan immunoassay of U.S. Pat. No. 7,148,024; type: binding; details: across the entire dose response curve
Source text: In accordance with a preferred embodiment of this invention, a competitive assay is provided utilizing the reagents and procedure disclosed in U.S. Pat. No. 7,148,024, whose disclosure is incorporated by reference In this preferred procedure, the preferred procedure as set forth in U.S. Pat. No. 7,148,024, utilized in its method antibodies produced from conjugates of an immunogenic polyamine polymer with a compound of the formula III-A:
[drawing 4] • wherein A′ is lower alkylene or lower alkenylene; • X′, Y, X, p and z are as above or mixtures thereof.
The fact that known concentrations of the amide of formula II can be calibrated with known concentrations of busulfan by means of a calibration assay can be seen from FIG. 3. […] These measured results are plotted against their relative concentrations. […] The amount or concentration of busulfan can be determined from the measured amount or concentration standards containing the amide of formula II by multiplying the measured results obtained from these amide standards by previously determined calibration factor which in the case of FIG. 3 is 0.107. In this manner one obtains the amount or concentration of busulfan in the samples based on the measured results with respect to the amide.

[3] = decomposition of busulfan standards in aqueous solution over time; type: physicochemical; details: FIG. 1
Method: In FIG. 1 a plurality of aqueous solutions of busulfan having varying concentrations of 100 ng/ml, 600 ng/ml, and 1200 ng/ml are incubated at room temperature. […] At room temperature for 5 days, more than 60% of the busulfan is decomposed.

[4] = cited from earlier work
[5] = tested on: antibodies specific for busulfan; details: antibodies from immunogens of formulae III-A and III-B; cited from earlier work

time stable ([1]; 4° C., FIG. 2): at least 4 weeks | time stable ([1]; 45° C., FIG. 2): at least 4 weeks | decomposition on storage ([1]; stored at 4° C. and 45° C. for at least 4 weeks, FIG. 2): no decomposition | storage of amide solutions without significant deterioration ([1]; without any special precautions): more than one year
SMILES: CS(=O)(=O)NCCCCNS(C)(=O)=O [amide of formula II]
calibration factor (busulfan equivalence factor) (antibody to busulfan; FIG. 3, amide concentration x factor = busulfan equivalence): 0.107 | busulfan calibrator concentration giving the same absorbance (antibody to busulfan; amide at 705 ng/mL, FIG. 3): 75 ng/mL | busulfan calibrator concentration giving the same absorbance (antibody to busulfan; amide at 1410 ng/mL, FIG. 3): 150 ng/mL | busulfan calibrator concentration giving the same absorbance (antibody to busulfan; amide at 2820 ng/mL, FIG. 3): 300 ng/mL | busulfan calibrator concentration giving the same absorbance (antibody to busulfan; amide at 5640 ng/mL, FIG. 3): 600 ng/mL | busulfan calibrator concentration giving the same absorbance (antibody to busulfan; amide at 11280 ng/mL, FIG. 3): 200 ng/mL | busulfan calibrator concentration giving the same absorbance (antibody to busulfan; amide at 18800 ng/mL, FIG. 3): 2000 ng/mL | cross-reactivity (antibody to busulfan; recovery compared to busulfan standard, 5000 ng/mL amide): 10.7% | relative cross reactivity as compared to busulfan [2]: 17.5%

half-life ([3]; aqueous solution, 37° C., aqueous solutions 100, 600, 1200 ng/ml): 14 h | busulfan decomposed ([3]; room temperature for 5 days): more than 60%
SMILES: CS(=O)(=O)OCCCCOS(C)(=O)=O [busulfan]
decomposition of busulfan calibrator ([4]; 4° C., calibrator matrix spiked with busulfan): decomposes within a day | busulfan decomposed ([4]; room temperature for 5 days): more than 60%

SMILES: O=S1(=O)CCC(O)C1 (centres unmarked) [tetrahydrothiophene-3-ol-1,1-dioxide]
reaction or binding of the busulfan antibodies with blocking metabolites [5]: do not substantially react with or bind to

SMILES: C1CCSC1 [tetrahydrothiophene]
reaction or binding of the busulfan antibodies with blocking metabolites [5]: do not substantially react with or bind to

SMILES: O=S1(=O)CCCC1 [tetramethylene sulfone]
reaction or binding of the busulfan antibodies with blocking metabolites [5]: do not substantially react with or bind to
